Measurements: patent US20110159086A1, “PHARMACEUTICAL FORMULATION COMPRISING A CB1-RECEPTOR COMPOUND IN A SOLID SOLUTION AND/OR SOLID DISPERSION” (LABORATORIOS DEL DR. ESTEVE, S.A., priority 2008, published 2011)
Where two headings read alike, the source gives them in different places.

Tests used:
[1] = Dissolution profiles of the hot melt extrusion formulations, Non-Sink conditions (HCL 0.1N, pH 1.2); type: physicochemical; details: for % dissolved (pH 1.2): Non-Sink, HCL 0.1N pH 1.2, paddles 50 rpm, 1000 ml, 37° C.
Description: (§1) A mixture has been prepared during two minutes in proportion as described in Table 4. The “Hot Melt Extrusion” formulations, in percentage, have been developed for each series.
(§2) The mixture has been loaded in an extruder and the temperature has been adjusted according to the type of polymer used, as described below:
(§3) The obtained extrudates have been cooled at room temperature and milled. The particle size has then been homogenized. A powder has been obtained which has then been dosified in capsules for administration
(§4) The dissolution apparatus used was HANSON […]. SR8 PLUS, the UV spectrophotometer HEWLET PACKARD 8452.
In the NON-SINK conditions, the active ingredient concentration in the dissolution medium is above the saturation concentration, i.e. the active ingredient is in a medium in which it is not soluble.
The conditions used for the Non-Sink assays were:
Dissolution medium: HCL 0.1N, pH 1.2
(§5) Vessel temperature 37° C.

[2] = Dissolution profiles of the hot melt extrusion formulations, Sink conditions (HCL 0.1N, pH 1.2 + Sodium Lauryl Sulfate 0.1%); type: physicochemical; details: for % dissolved (pH 1.2 SLS 0.1%): Sink, HCL 0.1N pH 1.2 + SLS 0.1%, paddles 50 rpm, 1000 ml, 37° C.
Description: as §1, §2, §3, §4
In the SINK conditions, the active ingredient concentration in the dissolution medium is below 20% of the saturation concentration, i.e. the active ingredient will dissolve easily in the medium.
The conditions used for the Sink assays were:
Dissolution medium: HCL 0.1N, pH 1.2+Sodium Lauryl Sulfate 0.1%
as §5

[3] = Pharmacokinetic study in rats, plasma levels of the (4S,5S) cis enantiomer by chiral LC-MS/MS; type: in vivo, male Wistar Hannover rats; details: for Vd: male, rat
[4] = Solubility increase (Δ) = FD60 min formulation/FD % 60 min (drug), FD = dissolved drug fraction
[5] = Wistar Hannover (HSDHan:WIST), po, 20 mg/kg, male rat, single dose, fasting, analyte (4S,5S) cis enantiomer in plasma, suspension = active alone in 5% arabic gum, HME = example 15
[6] = Wistar Hannover, plasma, iv, 1 mg/kg, male rat, solution

## C[C@@H]1C(C(=O)NN2[C@H](C)CCC[C@@H]2C)=NN(c2ccc(Cl)cc2Cl)[C@@H]1c1ccc(Cl)cc1 [(4S,5S) cis enantiomer, (4S,5S)-5-(4-chlorophenyl)-1-(2,4-dichlorophenyl)-N-(cis-2,6-dimethylpiperidin-1-yl)-4-methyl-4,5-dihydro-1H-pyrazole-3-carboxamide]
[1]; [4]
  Increase (Δ) 60 min. Non Sink Conditions: 0.00
[1]; time 0 min
  % dissolved (pH 1.2): 0.0%
[1]; time 5 min
  % dissolved (pH 1.2): 2.2%
[1]; time 10 min
  % dissolved (pH 1.2): 1.9%
[1]; time 15 min
  % dissolved (pH 1.2): 1.4%
[1]; time 20 min
  % dissolved (pH 1.2): 1.5%
[1]; time 30 min
  % dissolved (pH 1.2): 1.6%
[1]; time 45 min
  % dissolved (pH 1.2): 2.7%
[1]; time 60 min
  % dissolved (pH 1.2): 2.9%
[2]; [4]
  Increase (Δ) 60 min. Sink Conditions: 0.00
[2]; time 0 min
  % dissolved (pH 1.2 SLS 0.1%): 0.0%
[2]; time 5 min
  % dissolved (pH 1.2 SLS 0.1%): 4.1%
[2]; time 10 min
  % dissolved (pH 1.2 SLS 0.1%): 6.5%
[2]; time 15 min
  % dissolved (pH 1.2 SLS 0.1%): 11.8%
[2]; time 20 min
  % dissolved (pH 1.2 SLS 0.1%): 16.0%
[2]; time 30 min
  % dissolved (pH 1.2 SLS 0.1%): 24.3%
[2]; time 45 min
  % dissolved (pH 1.2 SLS 0.1%): 37.8%
[2]; time 60 min
  % dissolved (pH 1.2 SLS 0.1%): 53.0%
[3]; [5]
  AUC(0-t): 374 ng·h/mL
  Tmax: 6 h
[3]; Wistar Hannover (HSDHan:WIST), po, 20 mg/kg, male rat, single dose, fasting, analyte (4S,5S) cis enantiomer in plasma, suspension = active alone in 5% arabic gum, HME = example 15, read-out: Cmax
  Cmax: 103 ng/mL
[3]; [6]
  AUC(0-inf): 559 ng·h/mL
  AUC(0-t): 534 ng·h/mL
  clearance: 30 mL/min/kg
  half-life: 492 min
[3]; Wistar Hannover, plasma, iv, 1 mg/kg, male rat, solution, read-out: Cmax (C0 for intravenous)
  Cmax: 828 ng/mL
[3]; Wistar Hannover, plasma, iv, 1 mg/kg, iv, 1 mg/kg, solution, read-out: Vd
  Vd: 21.1 L/kg
[3]; Wistar Hannover, plasma, iv, 1 mg/kg, iv, 1 mg/kg, solution, read-out: Vss
  Vd: 8.7 L/kg
[3]; po, 20 mg/kg, male rat, versus iv 1 mg/kg solution, suspension = active alone in 5% arabic gum, HME = example 15
  F (Absolute bioavailability estimated from AUC0-t): 3.5%
